We go through 2 compounds from article PMC9216299, “Quercetin and luteolin are single-digit micromolar inhibitors of the SARS-CoV-2 RNA-dependent RNA polymerase” (Scientific Reports, 2022).

By half-life is commonly meant the time needed for the level to fall by half in the phase considered. As usually defined, the IC50 is the point on the concentration scale where inhibition reaches its midpoint. By Ki is commonly meant a measure of affinity in units of concentration, obtained from inhibition or displacement.

The nature of series [1]: In vitro plasma stability. As to conditions: for stability in blood plasma (in words): mouse plasma, measured time span 120 min; for half-life at 2 µM: mouse, plasma.
For series [2] the following is noted: 24 h, pH 7.4.
A further series deals with 3CL^pro. As to conditions: viral protease 3CLpro, cited from earlier work; for IC50: in vitro.
A further series addresses SARS-CoV-2 RdRp (Severe acute respiratory syndrome coronavirus 2, UniProt P0DTD1). As to the kind of experiment: biochemical. Particulars: for inhibition at 25 µM / inhibition at 100 µM: SARS-CoV-2 RdRp; for inhibition at 25 µM: compound at 25 µM, read-out: % inhib 25 µM; for inhibition at 100 µM: compound at 100 µM, read-out: % inhib 100 µM.
The nature of a further series: in vitro. Particulars: mouse, microsomes, pH 7.4.
The next series has as its system NTPase/helicase. Particulars: cited from earlier work.
Series [3] is described as follows: Aqueous kinetic solubility in PBS pH 7.4. As to conditions: PBS neutral buffer pH 7.4, 25 °C, 24 h, target 250 µM, 2.5% DMSO.
Another series relates to M^pro. As to conditions: cited from earlier work.

Each structure is given as a SMILES string. Values after ≈ are worked out from the molar mass of the structure shown. Read-outs that look alike come from different tables or passages of the source.

Take `O=c1cc(-c2ccc(O)c(O)c2)oc2cc(O)cc(O)c12` [Luteolin, luteolin]: in series [1], the “stability in blood plasma (in words)” value is reported as “stable in the measured time span” and the half-life at 2 µM is above 2 h. Also, the “kinetic solubility (Sk)” value in series [2] is recorded as 21 ± 4 µM (≈ 6.01 µg/mL). For the same compound, in the series on 3CL^pro, the IC50 is 20 µM. At SARS-CoV-2 RdRp, inhibition was half-maximal at 4.6 ± 0.3 µM (IC50), the inhibition at 25 µM stood at 89% and the inhibition at 100 µM turned out to be 100%. In addition, in the series “in vitro”, the half-life at 4.6 µM is above 1 h.
For the compound `O=c1c(O)c(-c2ccc(O)c(O)c2)oc2cc(O)cc(O)c12` [Quercetin, quercetin], in series [1], the “stability in blood plasma (in words)” value is on record as “poorly stable” and the half-life at 2 µM worked out at 0.117 ± 0.0333 h. Moreover, the “activity against SARS-CoV NTPase/helicase” value with NTPase/helicase is reported as “active”. Besides, the “kinetic solubility (Sk)” value in series [3] was 16 ± 5 µM (≈ 4.84 µg/mL). In addition, the “activity against SARS-CoV Mpro” value in the series with M^pro is listed as “active”. Moreover, in the series on 3CL^pro, the IC50 was 24 µM and the Ki is around 7 µM. Also, on SARS-CoV-2 RdRp, the inhibition at 25 µM came to 81% and the inhibition at 100 µM turned out to be 100%. This compound also registered a half-life at 4.6 µM in “in vitro” above 1 h.
